Seven compounds from ChEMBL document CHEMBL1201862, “PubChem BioAssay data set” (2004) can be followed below.

For orientation: IC50 means the point on the concentration scale where inhibition reaches its midpoint. What is called CC50 is the concentration giving 50% cytotoxicity. As a reminder, the EC50 is the concentration that produces a half-maximal response.

Calls of active or inactive are those of the source. Bounds are passed on as bounds.

Assay [1] relates to Vero. Nature of the assay: cells. It counts as functional, cell-based. The settings on record: Chlorocebus sabaeus.
Assay [2] is described as follows: A Cell Based Secondary Assay To Explore Cytotoxicity of Compounds that Sensitize Mycobacterium Tuberculosis to Beta-Lactam Antibiotics. The assay is classed as functional.
Assay [3] deals with Vero. The assay is described as follows: West Nile virus antiviral activity, cell-based, CPE readout (AID 1621). The assay is classed as functional. The settings on record: Chlorocebus sabaeus.
Assay [4] addresses Voltage-gated inwardly rectifying potassium channel KCNH2 (Homo sapiens, UniProt Q12809). The assay is described as follows: hERG protection from proarrhythmic block, potency, dose response, cell-based, thallium flux (AID 2121). It counts as ADME. Background: hERG is a cardiac potassium channel; its block is linked to QT prolongation.
Assay [5] is described as follows: Luminescence Cell-Based Dose Response to Identify Activators of Luciferase Translation or Activity in H4-C Neuroglioblastoma Cells. [Related pubchem assays: 1829 (Project Summary), 1814 (Primary HTS)]. The assay is classed as functional.
Assay [6] in a line: Luminescence Cell-Based Dose Confirmation to Identify Activators of 5'UTR Stem-Loop Driven Alpha-Synuclein mRNA Translation in H4 Neuroglioblastoma Cells. [Related pubchem assays: 1829 (Project Summary), 1814 (Primary HTS)]. The assay is classed as functional.
A short description of assay [7]: Luminescence Cell-Based Dose Confirmation HTS to Identify Activators of 5'UTR Stem-Loop Driven Alpha-Synuclein mRNA Translation in H4 Neuroglioblastoma Cells. [Related pubchem assays: 1829 (Project Summary), 1814 (Primary HTS)]. It counts as functional.
The nature of assay [8]: Luminescence Cell-Based Dose Response to Identify Activators of 5'UTR Stem-Loop Driven Prion Protein mRNA Translation in H4-C Neuroglioblastoma Cells. [Related pubchem assays: 1829 (Project Summary), 1814 (Primary HTS)]. The assay is classed as functional.
The subject of the next assay is H4. The assay is described as follows: Luminescence Cell-Based Dose Response HTS to Identify Activators of 5'UTR Stem-Loop Driven Prion Protein mRNA Translation in H4 Neuroglioblastoma Cells. [Related pubchem assays: 1829 (Project Summary), 1814 (Primary HTS)]. It counts as functional. The settings on record: Homo sapiens.
A further assay has as its target T1, Aminopeptidase N (Plasmodium falciparum FcB1/Columbia, UniProt O96935).
T1 sequence (O96935 whole entry): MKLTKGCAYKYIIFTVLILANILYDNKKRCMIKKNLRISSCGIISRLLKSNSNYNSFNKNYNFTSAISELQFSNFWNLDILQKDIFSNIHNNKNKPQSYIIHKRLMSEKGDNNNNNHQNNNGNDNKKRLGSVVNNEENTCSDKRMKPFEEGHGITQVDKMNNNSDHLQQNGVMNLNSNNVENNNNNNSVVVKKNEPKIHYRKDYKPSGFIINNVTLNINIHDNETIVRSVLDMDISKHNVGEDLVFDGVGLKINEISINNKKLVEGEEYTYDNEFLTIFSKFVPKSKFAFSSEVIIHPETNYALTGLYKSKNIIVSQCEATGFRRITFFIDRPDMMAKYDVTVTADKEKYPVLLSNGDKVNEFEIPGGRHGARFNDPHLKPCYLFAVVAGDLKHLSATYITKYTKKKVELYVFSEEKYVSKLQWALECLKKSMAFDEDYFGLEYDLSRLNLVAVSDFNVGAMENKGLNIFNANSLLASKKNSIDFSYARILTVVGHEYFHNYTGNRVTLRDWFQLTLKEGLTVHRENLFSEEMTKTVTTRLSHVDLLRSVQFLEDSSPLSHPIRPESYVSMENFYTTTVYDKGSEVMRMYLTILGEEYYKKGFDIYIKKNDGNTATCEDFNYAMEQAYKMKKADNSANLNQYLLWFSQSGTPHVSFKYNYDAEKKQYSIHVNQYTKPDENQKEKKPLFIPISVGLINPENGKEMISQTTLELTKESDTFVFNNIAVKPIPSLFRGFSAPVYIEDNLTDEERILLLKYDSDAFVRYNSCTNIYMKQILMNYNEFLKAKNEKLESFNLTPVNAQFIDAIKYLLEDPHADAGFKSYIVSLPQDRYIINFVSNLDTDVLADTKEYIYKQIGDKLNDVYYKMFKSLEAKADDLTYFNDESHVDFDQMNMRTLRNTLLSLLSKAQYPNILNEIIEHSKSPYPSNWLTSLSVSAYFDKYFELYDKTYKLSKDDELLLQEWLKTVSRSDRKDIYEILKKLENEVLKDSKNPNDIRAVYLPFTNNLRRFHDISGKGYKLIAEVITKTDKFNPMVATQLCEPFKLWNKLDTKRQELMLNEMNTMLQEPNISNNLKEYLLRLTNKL
The assay is described as follows: P. falciparum M1AAP inhibitors, biochemical, fluorogenic H-Leu-NHMec substrate, 1536-well (AID 1445). Further details: species or system Plasmodium falciparum 3D7, 3D7.

The next assay addresses Procathepsin L (Homo sapiens, UniProt P07711). The assay is described as follows: cathepsin L inhibitors, dose response, counter-screen for M1/M17 aminopeptidase inhibitor project, biochemical, QFRET, 1536-well (AID 2214).
Another assay has as its target Aspartyl aminopeptidase (Plasmodium falciparum 3D7, UniProt Q8I2J3). The assay is described as follows: Counterscreen for inhibitors of M1 and M17 aminopeptidases: QFRET-based biochemical high throughput dose response assay for inhibitors of the Plasmodium falciparum M18 Aspartyl Aminopeptidase (PFM18AAP). [Related PubChem assays: 1619 (Screening assay (M17LAP inhibitors).), 1445 (Screening assay (M1AAP inhibitors).)]. Background: A counterscreen serves to expose hits that act by an unwanted route or on another target.

Assay [9] is described as follows: Luminescence-based dose response cell-based high throughput screening assay for cytotoxic compounds using the IEC-6 intestinal epithelial cell line. [Related pubchem assays: 1858 (Summary AID.), 1825 (Counterscreen.), 1907 (Confirmation screen.)]. The assay is classed as functional.
Assay [10] is described as follows: control 3'UTR Renilla luciferase suppression, dose response, counter-screen for Shn3 inhibitor project, cell-based, Clone20-Shn3RL, cherry-picked (AID 624133). The assay is classed as functional.
Another assay concerns the target Nonstructural protein 1 (Influenza A virus, UniProt Q194T2). The assay is classed as functional, Influenza A virus (A/California/07/2009(H1N1)).
The subject of assay [11] is BJ. Nature of the assay: cytotoxicity toward BJ-TERT-LT-ST fibroblasts, dose response, cell-based, RAS-independent, luminescence (AID 1935).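 Also: BJ fibroblasts immortalized with TERT plus LT and ST oncogenes.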 The assay is classed as functional. Particulars: Homo sapiens.
Assay [12] is described as follows: cells. It counts as functional, cell-based.
Assay [13] has as its system HEK293. Nature of the assay: inhibitors of LMP1-driven NF-kB reporter, dose response, cell-based, HEK293, luciferase, cherry-pick (AID 588343). It counts as functional. The settings on record: Homo sapiens.
Assay [14] concerns the target Nucleotide-binding oligomerization domain-containing protein 2 (Homo sapiens, UniProt Q9HC29). The assay is described as follows: NOD2 signaling inhibitors, cell-based, luminescence, uHTS, HEK293 (AID 1566). The assay is classed as functional.
In assay [15] the test system is HEK293. Nature of the assay: NOD2 signaling inhibitors in MDP-stimulated cells, cell-based, uHTS, luminescence (AID 2001). It counts as functional. Particulars: Homo sapiens.
Assay [16] deals with BJ. Nature of the assay: cytotoxicity toward BJ-TERT fibroblasts, dose response, cell-based, RAS-independent, luminescence (AID 1933). It counts as functional. The settings on record: Homo sapiens.
For the next assay, the system named is INS1. The assay is described as follows: beta cell apoptosis inhibitors, cytokine rescue, dose response, luminescence, retest (AID 449756).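 Also: cell death triggered by IL-1 beta plus TNF-alpha plus IFN-gamma mixture; protective hits raise ATP signal compared with cytokine alone wells.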 Particulars: Rattus norvegicus. The assay is classed as functional, cell-based.
Assay [17] is described as follows: Shn3 3'UTR reporter inhibitors, dose response, cell-based, Clone20 osteoblasts, firefly luciferase, cherry-picked (AID 624132).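 Also: firefly luciferase luminescence from reporter carrying the Shn3 3'UTR in osteoblasts.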 It counts as functional.
Assay [18] has as its system HEK293. Nature of the assay: NOD1 signaling inhibitors, primary screen, cell-based, luminescence, uHTS (AID 1578). The assay is classed as functional. Particulars: Homo sapiens.
Assay [19] deals with HEK293. Nature of the assay: cells. It counts as functional, cell-based. Particulars: Homo sapiens.
Assay [20] relates to HEK293. Nature of the assay: cells. The assay is classed as functional, cell-based. The settings on record: Homo sapiens. The source holds these as a separate data set.
A short description of assay [21]: cytotoxicity toward DRD oncogenic fibroblasts, dose response, cell-based, non-viral oncogenic, luminescence (AID 1934). The assay is classed as functional. Particulars: Homo sapiens.
The subject of assay [22] is BJ. The assay is described as follows: cells. It counts as functional, cell-based. Particulars: Homo sapiens.
Assay [23] deals with HEK293. The assay is described as follows: cells. The settings on record: Homo sapiens. The assay is classed as functional, cell-based. The source holds these as a separate data set.
Assay [24] is described as follows: cells. It counts as functional, cell-based. The source holds these as a separate data set.
A short description of assay [25]: HepG2 cell cytotoxicity, dose response, cytotoxicity control for Shn3 inhibitor project, CellTiter-Glo, cherry-picked (AID 624134). The assay is classed as functional, cell-based. A general note: Cellular ATP, detected with luciferase, serves as a proxy for viable cell number.
Assay [26] addresses Diphosphomevalonate decarboxylase (Streptococcus pneumoniae serotype 2 (strain D39 / NCTC 7466), UniProt Q9FD53). Nature of the assay: S. pneumoniae DPM-DC inhibition retest, confirmation, biochemical, cuvette format, coupled NADH fluorescence (AID 1028). The assay is classed as functional.
A further assay addresses Cytochrome P450 2C9 (Homo sapiens, UniProt P11712). The settings on record: Potency.
Another assay has as its target Cytochrome P450 2C19 (Homo sapiens, UniProt P33261). The assay is described as follows: qHTS Assay for Inhibitors and Substrates of Cytochrome P450 2C19. [Related pubchem assays: 410 ]. The assay is classed as ADME. Particulars: read-out: Potency.

Sequence of Diphosphomevalonate decarboxylase (Q9FD53 whole entry): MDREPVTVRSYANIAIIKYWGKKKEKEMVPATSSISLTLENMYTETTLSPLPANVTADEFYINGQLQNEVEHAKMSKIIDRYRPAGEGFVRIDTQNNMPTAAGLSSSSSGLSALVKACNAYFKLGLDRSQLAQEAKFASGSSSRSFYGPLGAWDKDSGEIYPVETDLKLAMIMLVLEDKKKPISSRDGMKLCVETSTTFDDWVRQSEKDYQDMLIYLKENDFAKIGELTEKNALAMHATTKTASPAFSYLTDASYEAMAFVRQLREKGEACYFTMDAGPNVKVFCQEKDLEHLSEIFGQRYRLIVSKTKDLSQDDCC
Sequence of Nonstructural protein 1 (Q194T2 whole entry): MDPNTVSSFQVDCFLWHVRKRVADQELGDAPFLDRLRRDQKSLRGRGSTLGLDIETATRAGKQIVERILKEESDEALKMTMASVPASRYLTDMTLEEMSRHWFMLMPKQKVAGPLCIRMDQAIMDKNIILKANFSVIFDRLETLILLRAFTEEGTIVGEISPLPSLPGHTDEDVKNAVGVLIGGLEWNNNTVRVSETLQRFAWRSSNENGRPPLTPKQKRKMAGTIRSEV
Sequence of Nucleotide-binding oligomerization domain-containing protein 2 (Q9HC29 whole entry, the tested form may be a part): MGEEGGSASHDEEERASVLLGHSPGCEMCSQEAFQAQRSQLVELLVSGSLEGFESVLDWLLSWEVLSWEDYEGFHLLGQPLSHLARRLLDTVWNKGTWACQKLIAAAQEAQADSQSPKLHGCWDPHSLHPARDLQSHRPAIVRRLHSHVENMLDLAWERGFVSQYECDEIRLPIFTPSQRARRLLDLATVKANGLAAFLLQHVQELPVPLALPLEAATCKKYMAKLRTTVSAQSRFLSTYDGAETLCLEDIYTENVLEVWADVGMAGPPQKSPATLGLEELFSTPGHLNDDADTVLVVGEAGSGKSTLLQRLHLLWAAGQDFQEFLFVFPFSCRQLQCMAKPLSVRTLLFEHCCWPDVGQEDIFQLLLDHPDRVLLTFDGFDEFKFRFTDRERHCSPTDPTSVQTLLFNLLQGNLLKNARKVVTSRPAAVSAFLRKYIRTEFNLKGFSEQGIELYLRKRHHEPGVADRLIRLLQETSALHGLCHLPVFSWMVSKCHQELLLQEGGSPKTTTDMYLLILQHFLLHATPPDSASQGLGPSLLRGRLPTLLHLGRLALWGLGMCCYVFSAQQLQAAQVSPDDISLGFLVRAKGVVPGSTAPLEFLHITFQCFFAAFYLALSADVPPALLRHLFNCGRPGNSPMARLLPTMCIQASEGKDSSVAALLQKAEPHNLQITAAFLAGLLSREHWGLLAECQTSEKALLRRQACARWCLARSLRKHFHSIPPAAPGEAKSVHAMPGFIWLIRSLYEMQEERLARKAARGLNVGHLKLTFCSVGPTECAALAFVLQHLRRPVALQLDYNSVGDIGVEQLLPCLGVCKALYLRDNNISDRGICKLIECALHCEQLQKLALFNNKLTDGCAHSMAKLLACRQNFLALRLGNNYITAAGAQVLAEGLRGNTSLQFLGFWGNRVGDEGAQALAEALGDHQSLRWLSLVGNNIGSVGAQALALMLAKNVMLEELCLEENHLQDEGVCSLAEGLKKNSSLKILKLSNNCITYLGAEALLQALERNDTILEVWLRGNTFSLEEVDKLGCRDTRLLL
Sequence of Aspartyl aminopeptidase (Q8I2J3 whole entry): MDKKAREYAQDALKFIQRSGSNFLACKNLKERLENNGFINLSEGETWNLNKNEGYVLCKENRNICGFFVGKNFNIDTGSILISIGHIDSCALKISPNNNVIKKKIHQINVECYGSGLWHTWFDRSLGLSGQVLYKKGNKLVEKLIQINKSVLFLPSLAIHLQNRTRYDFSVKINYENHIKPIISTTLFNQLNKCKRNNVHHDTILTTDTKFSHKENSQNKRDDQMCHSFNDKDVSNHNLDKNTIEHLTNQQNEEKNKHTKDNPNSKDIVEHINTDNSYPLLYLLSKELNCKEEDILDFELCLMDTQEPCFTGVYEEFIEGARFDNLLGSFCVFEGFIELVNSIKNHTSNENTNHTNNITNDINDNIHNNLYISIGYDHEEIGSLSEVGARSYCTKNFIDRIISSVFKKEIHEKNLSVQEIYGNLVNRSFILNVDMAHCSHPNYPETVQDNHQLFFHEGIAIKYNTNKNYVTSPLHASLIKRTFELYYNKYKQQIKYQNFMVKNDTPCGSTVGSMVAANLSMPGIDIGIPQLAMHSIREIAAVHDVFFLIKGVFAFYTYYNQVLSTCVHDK
Sequence of Procathepsin L (P07711 whole entry): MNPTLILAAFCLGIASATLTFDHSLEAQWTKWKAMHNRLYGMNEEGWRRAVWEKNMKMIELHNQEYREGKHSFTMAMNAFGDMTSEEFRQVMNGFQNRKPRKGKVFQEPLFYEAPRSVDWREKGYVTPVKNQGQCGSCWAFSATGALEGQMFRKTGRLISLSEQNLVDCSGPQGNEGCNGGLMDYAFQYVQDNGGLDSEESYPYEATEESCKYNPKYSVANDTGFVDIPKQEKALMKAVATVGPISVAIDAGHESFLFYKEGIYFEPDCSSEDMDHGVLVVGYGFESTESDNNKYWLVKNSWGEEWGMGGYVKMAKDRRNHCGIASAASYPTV
Sequence of Cytochrome P450 2C9 (P11712 whole entry): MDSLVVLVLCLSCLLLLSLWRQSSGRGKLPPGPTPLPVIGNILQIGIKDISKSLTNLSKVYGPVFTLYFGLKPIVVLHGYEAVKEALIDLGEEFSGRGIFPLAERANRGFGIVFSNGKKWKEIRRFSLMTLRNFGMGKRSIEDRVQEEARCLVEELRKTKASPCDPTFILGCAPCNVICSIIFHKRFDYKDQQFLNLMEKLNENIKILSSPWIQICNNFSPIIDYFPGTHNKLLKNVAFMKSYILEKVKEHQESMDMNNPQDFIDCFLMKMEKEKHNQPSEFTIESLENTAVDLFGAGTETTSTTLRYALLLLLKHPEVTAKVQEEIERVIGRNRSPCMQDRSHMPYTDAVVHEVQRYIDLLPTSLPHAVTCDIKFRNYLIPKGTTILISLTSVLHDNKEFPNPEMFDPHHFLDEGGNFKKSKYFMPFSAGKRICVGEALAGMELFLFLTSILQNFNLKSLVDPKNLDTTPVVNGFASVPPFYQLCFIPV
Sequence of Cytochrome P450 2C19 (P33261 whole entry): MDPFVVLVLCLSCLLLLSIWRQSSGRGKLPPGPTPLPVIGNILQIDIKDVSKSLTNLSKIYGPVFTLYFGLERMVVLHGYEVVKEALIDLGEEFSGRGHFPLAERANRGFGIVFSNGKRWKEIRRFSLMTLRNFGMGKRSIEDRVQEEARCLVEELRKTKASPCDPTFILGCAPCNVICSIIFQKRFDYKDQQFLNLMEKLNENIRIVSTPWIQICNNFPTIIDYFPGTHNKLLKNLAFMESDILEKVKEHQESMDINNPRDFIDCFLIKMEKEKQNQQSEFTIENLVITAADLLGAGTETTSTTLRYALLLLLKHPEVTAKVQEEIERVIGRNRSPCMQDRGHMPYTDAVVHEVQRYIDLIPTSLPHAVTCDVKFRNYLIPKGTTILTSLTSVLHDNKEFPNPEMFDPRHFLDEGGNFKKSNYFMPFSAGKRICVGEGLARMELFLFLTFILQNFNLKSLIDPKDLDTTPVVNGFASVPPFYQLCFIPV
Sequence of Voltage-gated inwardly rectifying potassium channel KCNH2 (Q12809 whole entry): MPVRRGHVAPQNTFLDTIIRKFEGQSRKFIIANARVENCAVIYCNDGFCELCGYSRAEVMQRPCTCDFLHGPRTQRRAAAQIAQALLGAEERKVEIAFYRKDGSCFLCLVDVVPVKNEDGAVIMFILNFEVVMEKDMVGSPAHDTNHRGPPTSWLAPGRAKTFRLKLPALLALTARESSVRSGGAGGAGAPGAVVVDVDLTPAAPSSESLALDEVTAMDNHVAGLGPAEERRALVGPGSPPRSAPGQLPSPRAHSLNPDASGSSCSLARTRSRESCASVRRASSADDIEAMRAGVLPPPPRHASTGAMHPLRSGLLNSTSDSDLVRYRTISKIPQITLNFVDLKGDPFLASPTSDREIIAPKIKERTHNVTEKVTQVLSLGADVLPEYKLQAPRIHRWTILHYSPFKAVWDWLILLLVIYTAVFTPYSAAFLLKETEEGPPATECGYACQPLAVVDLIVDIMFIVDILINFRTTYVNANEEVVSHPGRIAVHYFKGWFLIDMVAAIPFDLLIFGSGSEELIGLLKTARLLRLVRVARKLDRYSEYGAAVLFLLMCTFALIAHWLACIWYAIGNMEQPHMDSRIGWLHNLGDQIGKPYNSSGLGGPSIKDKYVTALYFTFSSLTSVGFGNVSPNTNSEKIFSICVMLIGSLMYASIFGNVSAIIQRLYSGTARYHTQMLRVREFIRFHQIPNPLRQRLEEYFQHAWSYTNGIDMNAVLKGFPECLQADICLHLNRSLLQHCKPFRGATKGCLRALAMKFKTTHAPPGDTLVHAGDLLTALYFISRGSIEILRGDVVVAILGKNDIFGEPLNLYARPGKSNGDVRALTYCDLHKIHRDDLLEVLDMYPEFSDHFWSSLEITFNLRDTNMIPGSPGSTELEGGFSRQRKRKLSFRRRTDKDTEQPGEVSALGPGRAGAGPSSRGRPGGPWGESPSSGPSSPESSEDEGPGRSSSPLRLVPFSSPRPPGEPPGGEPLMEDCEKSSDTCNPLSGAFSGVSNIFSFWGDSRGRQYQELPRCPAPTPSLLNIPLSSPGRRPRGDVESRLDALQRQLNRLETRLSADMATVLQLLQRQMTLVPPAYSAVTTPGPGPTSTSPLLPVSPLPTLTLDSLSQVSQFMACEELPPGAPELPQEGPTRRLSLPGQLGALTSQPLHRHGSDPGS

For the compound `NC1=C(c2nc(-c3ccc(Cl)cc3)cs2)C(=O)CN1CCCN1CCOCC1`, the concentration for half-maximal inhibition (IC50) was 22 µM (active) in the assay with Vero [1] and 24.2 µM (active) in the assay with Vero [3]. In addition, the CC50 in assay [2] is > 40 µM (active).
As to `CCOC(=O)N1CCN(C(=O)c2ccc(CN(c3ccc(C)c(C)c3)S(C)(=O)=O)cc2)CC1`, in assay [4], the EC50 is 9.85 µM (active).
On to `Cc1cc(-c2nnc(S)o2)c(C)n1-c1ccccc1`, for which the EC50 in assay [5] is > 12 µM (not active); in assay [6], 1.19 µM (active); in [7] it was < 0.1 µM (active); in [8], 2.02 µM (active); with H4 it was 75.3 µM (active).
Regarding `COc1ccc(OC)c(/C=C2\SC(=S)N(C(C(=O)O)c3ccccc3)C2=O)c1` (centres undefined), the IC50 is 12.1 µM (active) at Aminopeptidase N, > 59.6 µM (not active) against Procathepsin L and > 73.5 µM (not active) against Aspartyl aminopeptidase.
For `CC(=O)NC(c1cccc([N+](=O)[O-])c1)c1ccc2cccnc2c1O` (centres undefined), the IC50 in assay [9] was 1.35 µM (active); on Nonstructural protein 1, 9.19 µM (active); with HEK293 [15] it was > 20 µM (inactive); in the assay with HEK293 [19] it was > 20 µM (inactive); with HEK293 [20] it was > 20 µM (inactive); in the assay with HEK293 [23] it was 19.8 µM (active). The AC50 is > 70 µM (inactive) in assay [10]; 4.67 µM (active) in the assay on HEK293 [13]; 0.521 µM (active) with INS1; 0.889 µM (active) in assay [17]; 0.887 µM (active) in [25]. For the same compound, the EC50 is 7.23 µM (inconclusive) with BJ [11]; 4.94 µM (active) in the assay “cells [12]”; > 20 µM (inactive) in assay [14]; 1.7 µM (inconclusive) in the assay with BJ [16]; > 20 µM (inactive) in the assay with HEK293 [18]; 1.96 µM (inconclusive) in assay [21]. For the same compound, the values for the EC50 in the assay on BJ [22] and in “cells [24]” were 10.7 µM (active) and > 350 µM (not active), respectively.
Consider `Cc1ccc(-n2sc3ccccc3c2=O)cc1C(=O)N1CCCCC1`, for which, in assay [26], the IC50 is 19.7 µM (active).
In the case of `CC(C)C[C@@H](CC(=O)N[C@@H](CCC(=O)O)CC(=O)O)NC(=O)[C@@H]1CNCC[C@H]1NC(=O)C[C@H](CCCN)NC(=O)C[C@H](CO)NC(=O)[C@@H]1CNCC[C@H]1N`, the AC50 on Cytochrome P450 2C9 was 25.1 µM (inconclusive); at Cytochrome P450 2C19 it was 31.6 µM (inconclusive).
